Experimental data reported in ChEMBL document CHEMBL4819087, “Identification and optimization of 3-bromo-N'-(4-hydroxybenzylidene)-4-methylbenzohydrazide derivatives as mTOR inhibitors that induce autophagic cell death and apoptosis in triple-negative breast cancer” (Eur J Med Chem, 2021).
The source made the active and inactive calls. The rule behind the calls is not given here.

What was measured:
[1] = molecular target: T1, Serine/threonine-protein kinase mTOR (Homo sapiens, UniProt P42345); assay: Inhibition of mTOR in human MDA-MB-468 cells assessed as reduction in phosphorylation of mTOR at Ser2448 residue at 0.5 to 2 uM after 24 hrs by Western blot analysis; format: cell-based; conditions: dose 0.5-2 µM
[2] = molecular target: T1, Serine/threonine-protein kinase mTOR; assay: Inhibition of mTOR in human MDA-MB-231 cells assessed as reduction in p70S6K(Thr389) protein level at 0.5 to 2 uM after 24 hrs by Western blot analysis; format: cell-based; conditions: dose 0.5-2 µM
MDA-MB-468 [3] = assay: Induction of apoptosis in human MDA-MB-468 cells assessed as early apoptic cells at 5 uM after 24 hrs by AnnexinV-FITC/PI staining based flow cytometry analysis (reference value: 0.51%); format: functional
MDA-MB-231 [4] = assay: Induction of apoptosis in human MDA-MB-231 cells assessed as viable cells at 10 uM after 24 hrs by AnnexinV-FITC/PI staining based flow cytometry analysis (reference value: 95.6 to 96.45%); format: functional; conditions: read-out: Activity
MDA-MB-231 [5] = assay: Induction of apoptosis in human MDA-MB-231 cells assessed as late apoptotic cells at 10 uM after 24 hrs by AnnexinV-FITC/PI staining based flow cytometry analysis (reference value: 0.84 to 1.59%); format: functional
[6] = molecular target: T1, Serine/threonine-protein kinase mTOR; assay: Inhibition of mTOR in human MDA-MB-231 cells assessed as reduction in P70S6 protein level at 0.5 to 2 uM after 24 hrs by Western blot analysis; format: cell-based; conditions: dose 0.5-2 µM
MDA-MB-231 [7] = assay: (§1) Induction of apoptosis in human MDA-MB-231 cells assessed as early apoptotic cells at 10 uM pretreated with autophagy inhibitor, 3-methyladenine for 1 hr followed by incubation with compound and measured after 24 hrs by Annexin V-FITC/propidium iodide staining based flow cytometry (reference value: 3.81%); format: functional; set-up: scale not given: the % may be the effect or the level left
MDA-MB-468 [8] = assay: Induction of apoptosis in human MDA-MB-468 cells assessed as viable cells at 10 uM pretreated with autophagy inhibitor, 3-methyladenine for 1 hr followed by incubation with compound and measured after 24 hrs by Annexin V-FITC/propidium iodide staining based flow cytometry (reference value: 93.6%); format: functional; conditions: read-out: Activity
[9] = molecular target: T1, Serine/threonine-protein kinase mTOR; assay: Inhibition of mTOR in human MDA-MB-468 cells assessed as reduction in p70S6K(Thr389) protein level at 0.5 to 2 uM after 24 hrs by Western blot analysis; format: cell-based; conditions: dose 0.5-2 µM
[10] = molecular target: T1, Serine/threonine-protein kinase mTOR; assay: Inhibition of mTOR in human MDA-MB-468 cells assessed as reduction in P70S6 protein level at 0.5 to 2 uM after 24 hrs by Western blot analysis; format: cell-based; conditions: dose 0.5-2 µM
MDA-MB-231 [11] = assay: Induction of apoptosis in human MDA-MB-231 cells assessed as late apoptotic cells at 2.5 uM after 24 hrs by AnnexinV-FITC/PI staining based flow cytometry analysis (reference value: 0.84%); format: functional
MDA-MB-468 [12] = assay: Induction of apoptosis in human MDA-MB-468 cells assessed as late apoptic cells at 10 uM after 24 hrs by AnnexinV-FITC/PI staining based flow cytometry analysis (reference value: 0.87 to 2.84%); format: functional
[13] = molecular target: T1, Serine/threonine-protein kinase mTOR; assay: Inhibition of mTOR in human MDA-MB-231 cells assessed as reduction in AKT protein level at 0.5 to 2 uM after 24 hrs by Western blot analysis; format: cell-based; conditions: dose 0.5-2 µM
MDA-MB-468 [14] = assay: Antiproliferative activity against human MDA-MB-468 cells assessed as inhibition of cell viability at 5 uM preincubated with autophagy inhibitor, 3-methyladenine for 1 hr followed by compound addition and measured after 24 hrs by MTT assay; format: functional, cell-based
MDA-MB-468 [15] = assay: Induction of apoptosis in human MDA-MB-468 cells assessed as necrotic cells at 2.5 uM after 24 hrs by AnnexinV-FITC/PI staining based flow cytometry analysis (reference value: 1.56%); format: functional
MDA-MB-231 [16] = assay: Antiproliferative activity against human MDA-MB-231 cells measured after 24 hrs by Hoechst 33258 dye based fluorescence microscopic analysis; format: functional, cell-based; conditions: dose 2.5-10 µM
MDA-MB-468 [17] = assay: Induction of apoptosis in human MDA-MB-468 cells assessed as increase in Bax level at 2.5 to 10 uM incubated for 24 hrs by western blot analysis; format: functional, cell-based; conditions: dose 2.5-10 µM
MDA-MB-468 [18] = assay: Induction of autophagy in human MDA-MB-468 cells expressing mRFP-EGFP-LC3B at 5 uM measured after 24 hrs by fluorescence microscopic analysis; format: functional, cell-based
[19] = molecular target: T1, Serine/threonine-protein kinase mTOR; assay: Inhibition of mTOR in human MDA-MB-231 cells assessed as reduction in p-AKT(Ser473) protein level at 0.5 to 2 uM after 24 hrs by Western blot analysis; format: cell-based; conditions: dose 0.5-2 µM
MDA-MB-468 [20] = assay: Induction of apoptosis in human MDA-MB-468 cells assessed as decrease in Bcl2 level at 2.5 to 10 uM incubated for 24 hrs by western blot analysis; format: functional, cell-based; conditions: dose 2.5-10 µM
MDA-MB-231 [21] = assay: Induction of autophagy in human MDA-MB-231 cells expressing mRFP-EGFP-LC3B at 5 uM measured after 24 hrs by fluorescence microscopic analysis; format: functional, cell-based
MDA-MB-468 [22] = assay: Induction of autophagy in human MDA-MB-468 cells assessed as increase in Beclin-1 protein level at 2.5 to 10 uM incubated for 24 hrs by Western blot analysis; format: functional, cell-based; conditions: dose 2.5-10 µM
MDA-MB-468 [23] = assay: Induction of apoptosis in human MDA-MB-468 cells assessed as increase in cleaved caspase 3 level at 2.5 to 10 uM incubated for 24 hrs by western blot analysis; format: functional, cell-based; conditions: dose 2.5-10 µM
MDA-MB-231 [24] = assay: Induction of apoptosis in human MDA-MB-231 cells assessed as necrotic cells at 5 uM after 24 hrs by AnnexinV-FITC/PI staining based flow cytometry analysis (reference value: 0.083%); format: functional
MDA-MB-468 [25] = assay: Induction of apoptosis in human MDA-MB-468 cells assessed as necrotic cells at 10 uM after 24 hrs by AnnexinV-FITC/PI staining based flow cytometry analysis (reference value: 1.56%); format: functional
[26] = molecular target: T1, Serine/threonine-protein kinase mTOR; assay: Inhibition of mTOR in human MDA-MB-231 cells assessed as reduction in p-4EBP1(Thr37/46) protein level at 0.5 to 2 uM after 24 hrs by Western blot analysis; format: cell-based; conditions: dose 0.5-2 µM
MDA-MB-468 [27] = assay: Induction of apoptosis in human MDA-MB-468 cells assessed as early apoptic cells at 10 uM after 24 hrs by AnnexinV-FITC/PI staining based flow cytometry analysis (reference value: 0.51 to 2.55%); format: functional
MDA-MB-468 [28] = assay: as §1, with “MDA-MB-468” for “MDA-MB-231”, “pretreated for 1 hr” for “pretreated”, “3-methyladenine” for “3-methyladenine for 1 hr”, “4.08%)” for “3.81%)”; format: functional; set-up: scale not given: the % may be the effect or the level left
MDA-MB-231 [29] = assay: Induction of apoptosis in human MDA-MB-231 cells assessed as early apoptotic cells at 2.5 uM after 24 hrs by AnnexinV-FITC/PI staining based flow cytometry analysis (reference value: 2.63%); format: functional
MDA-MB-231 [30] = assay: Induction of apoptosis in human MDA-MB-231 cells assessed as decrease in Bcl2 level at 2.5 to 10 uM incubated for 24 hrs by western blot analysis; format: functional, cell-based; conditions: dose 2.5-10 µM
[31] = molecular target: T1, Serine/threonine-protein kinase mTOR; assay: Inhibition of mTOR in human MDA-MB-231 cells assessed as reduction in phosphorylation of mTOR at Ser2448 residue at 0.5 to 2 uM after 24 hrs by Western blot analysis; format: cell-based; conditions: dose 0.5-2 µM
MDA-MB-468 [32] = assay: Inhibition of colony formation in human MDA-MB-468 cells measured after 14 days by crystal violet staining based assay; format: functional, cell-based; conditions: dose 5-10 µM, time 14.0 day

SMILES: C/C(=N\NC(=O)c1cccc(Br)c1)c1ccc(C(=O)Nc2nc3ccccc3[nH]2)cc1
- inhibition [1]: Active
- inhibition [2]: Active
- Activity (MDA-MB-468 [3]): 5.57%
- viability at 10 µM (MDA-MB-231 [4]): 70.2%
- Activity (MDA-MB-231 [5]): 5.71%
- inhibition [6]: Active
- Activity (MDA-MB-231 [7]): 6.1%
- viability at 10 µM (MDA-MB-468 [8]): 81%
- inhibition [9]: Active
- inhibition [10]: Active
- Activity (MDA-MB-231 [11]): 2.96%
- Activity (MDA-MB-468 [12]): 12.3%
- inhibition [13]: Active
- Activity (MDA-MB-468 [14]): Active
- Activity (MDA-MB-468 [15]): 1.89%
- Activity (MDA-MB-231 [16]): Dose-Dependent Effect
- Activity (MDA-MB-468 [17]): Active
- Activity (MDA-MB-468 [18]): Active
- inhibition [19]: Active
- Activity (MDA-MB-468 [20]): Active
- Activity (MDA-MB-231 [21]): Active
- Activity (MDA-MB-468 [22]): Active
- Activity (MDA-MB-468 [23]): Active
- Activity (MDA-MB-231 [24]): 0.099%
- Activity (MDA-MB-468 [25]): 1.24%
- inhibition [26]: Active
- Activity (MDA-MB-468 [27]): 12%
- Activity (MDA-MB-468 [28]): 7.07%
- Activity (MDA-MB-231 [29]): 6.84%
- Activity (MDA-MB-231 [30]): Active
- inhibition [31]: Active
- inhibition (MDA-MB-468 [32]): Dose-Dependent Effect
